The values that follow come from patent US8207344B2, “GPR119 agonists” (Eli Lilly and Company, priority 2009, dated 2012).

One series deals with T1, human GPR119 (Homo sapiens, UniProt Q8TDV5).
T1 construct: expressed in transfected cells
T1 sequence (Q8TDV5 1-335): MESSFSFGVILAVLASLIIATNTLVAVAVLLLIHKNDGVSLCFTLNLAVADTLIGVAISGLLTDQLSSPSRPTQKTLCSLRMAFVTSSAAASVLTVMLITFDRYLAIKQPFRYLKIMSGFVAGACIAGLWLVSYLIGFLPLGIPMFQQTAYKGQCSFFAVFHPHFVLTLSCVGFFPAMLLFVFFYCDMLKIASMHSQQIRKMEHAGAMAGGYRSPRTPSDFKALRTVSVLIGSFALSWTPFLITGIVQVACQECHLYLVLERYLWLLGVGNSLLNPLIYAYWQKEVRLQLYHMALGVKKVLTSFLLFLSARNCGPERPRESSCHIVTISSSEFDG
Briefly: Human GPR119 activity assay (cAMP HTRF in 293 T-REx cells expressing hGPR119). Format: cell-based. To be noted: 293 T-REx cells expressing hGPR119, cAMP HTRF, 1 h incubation; read-out: EC50 (agonist concentration that gives 50% activation of the hGPR119 mediated cAMP increase). As for the experimental part: A stable cell line expressing human GPR119 off an inducible promoter is generated in 293 T-REx™ cells (Invitrogen). T-REx™ (Tetracycline-Regulated Expression) cell line stably expresses the tetracycline repressor protein and, therefore, allow for inducible expression of the gene of interest (GPR119) with doxycycline. Agonists to the human GPR119 receptor are characterized by measuring increases in the cAMP levels in 293 T-REx™ cells expressing hGPR119. 10,000 cells/well are seeded into a 96-well plate and cultured for 24 h in DMEM supplemented with 10% fetal bovine serum, 15 μg/mL Blasticidin and 200 μg/mL Hygromycin B. Next day, cells are stimulated with 1 ng/mL Doxycycline in DMEM with no further addition of Hygromycin B and Blasticidin. cAMP assay is performed after 18 h incubation with doxycycline. cAMP is determined using the cAMP HiRange HTRF assay (Cisbo International). Cells are washed with PBS and pre-incubated for 15 min with PBS supplemented with 2 mM glucose, 0.25 mM IBMX and 0.1% BSA. Test compounds diluted in the pre-incubation buffer are added and cells are further incubated at room temperature for 1 h. Incubation is stopped by addition of HTRF reagents diluted in the lysis buffer, followed by incubation for 1 h and measurements of fluorescence at […]. The potency of the agonists is determined as the agonist concentration that gives 50% activation of the hGPR119 mediated cAMP increase (EC50).
On the technique in general: Time-resolved FRET reads energy transfer from a long-lived donor to a nearby acceptor.

Another series has as its system total GIP. Put plainly: Mouse Gastric Inhibitory Polypeptide (GIP) assay. The format is in vivo. To be noted: male C57BL/6 mice, 0.5-6 h. The method, then:
Male C57BL/6 mice (8-10 weeks of age, n=20/dose level, n=5/time point) are fasted overnight (16 hr), weighed the following morning, and then orally dosed with vehicle (1% HEC) or various doses of test article at 5 mL/kg. Animals are euthanized by CO2 asphyxiation for 1 minute, and then blood is collected by cardiac puncture at various times (0.5, 1.5, 3, and 6 h post compound dose) into EDTA plasma tubes containing 10 μL/mL DPP4 inhibitor (Millipore, DPP4-010) and 1.1×10^5 KIU/mL aprotinin. Blood samples are kept on ice until plasma is separated by centrifugation at 3000×g for 5 min. Resulting plasma samples are placed into 96-well plates and stored at −20° C. until analyzed. Measurements of total GIP (measured by Millipore kit EZRMGIP-55K) are performed for each time-point. For each treatment group, the AUC for GIP is determined by applying the trapezoid rule to the timepoint-specific average GIP levels. Potencies were estimated using piecewise linear interpolation across the collection of calculated GIP AUCs above vehicle from a dose response study. Compound potency is defined as the dose and/or concentration of compound that yielded an increase of 350 pg*hr/mL above the vehicle group GIP AUC over the timecourse of the experiment.

For series [1], the system named is Diet-Induced Obese (DIO) mice. Briefly: Chronic treatment of Diet-Induced Obese (DIO) mice. Format: in vivo, C57/BL6 mice. To be noted: 30 mg/kg once daily, 3 weeks. As for the experimental part: DIO male C57/BL6 mice are maintained on a calorie-rich diet and have free access to food and water for at least 2 weeks before randomization into groups by weight (n=8) and treatment. Animals are individually housed in a temperature-controlled (24° C.) facility with 12 hour light, 12 hour dark cycle. Body weights range from 34-40 g. Mice are administrated once daily vehicle (1% HEC), 30 mg/kg GPR119 agonist, 30 mg/kg DPPIV inhibitor or a combination of 30 mg/kg GPR119 agonist and 30 mg/kg DPPIV inhibitor. Treatment continues for 3 weeks. Food and body weights are recorded daily before dark photoperiod. Cumulative body weight change is calculated as the daily body weight minus body weight before treatment for each animal and presented as an average for the group. Food intake is measured daily for each animal and combined with the total amount of food consumed by that animal from all previous days to yield cumulative food intake, which is then averaged for the group. At the end of the study OGTT is performed after overnight fasting.

Series [2] can be described thus: Oral bioavailability in Beagle dogs. The format is in vivo. The conditions noted are these: dog, plasma, 1 mg/kg IV, 3 mg/kg oral gavage. The text has this:
(§1) Methods for accessing oral bioavailability are well appreciated in the art. One such reference is Medicinal Research Reviews Vol 21 No. 5 382-396 (2001). The oral bioavailability of compounds of the present invention may be estimated essentially as follows.
(§2) Cohorts of three 250-400 gram male Sprague-Dawley rats or approximately 10 kg Beagle dogs (female or male) are used. […] Dogs are IV administered the compounds by cannulated cephalic vein and blood collections are by jugular vein. Animals are first IV dosed at 1 mg/kg and blood samples (0.1 to 0.2 mL) are then collected using EDTA as an anticoagulant at 0.0830, 0.25, 0.50, 1, 2, 4, 8, 12, and 24 h. After at least two days and overnight fasting, the animals are dosed at 3 mg/kg by oral gavage. Blood samples (0.1 to 0.2 mL) are then collected using EDTA as an anticoagulant at 0.25, 0.50, 1, 2, 4, 6, 8, 12, and 24 h. During the course of a study the total of blood (mL) collected is not to exceed 1% of total body weight in grams.
(§3) Compound plasma concentrations are measured by LC/MS/MS assays. Data are then analyzed using standard non-compartmental pharmacokinetic analysis. Oral bioavailability is calculated as: (AUC0-inifinity, oral/AUC0-inifinity, IV)×(Dose, IV./Dose, oral)×100%

In a further series the test system is plasma glucose. Briefly: Mouse Oral Glucose Tolerance Test (OGTT). The format is in vivo, C57BL/6 mice. The method, then: Normal C57BL/6 mice are fasted overnight, randomized into groups (n=6) and orally dosed with vehicle (1% HEC, 0.25% tween 80, 0.05% antifoam) or 0.9, 2, 6 and 18 mg/kg GPR119 agonist suspended in vehicle. 30 minutes after the compound is administered, mice are dosed orally with a 50% dextrose solution at 3 g/kg. At various times (0, 20, 40, or 60 minutes post glucose), the mice are restrained in cotton gloves or paper towels and 1 mm or less of the tail is cut. A small drop of blood is placed onto Accu-Chek® glucometers (Roche model 22-044217) for glucose measurements. Three glucometers are used to read glucose in each collected sample, with the median value being reported as the final glucose value. Area under the plasma glucose curve (glucose AUC) is calculated for each group and the percentage decrease in the glucose AUC versus the control group is used as a measure of efficacy of the compound to decrease plasma glucose.

A further series concerns GLUTag cells. Briefly: Glucagon-like peptide 1 secretion in GLUTag cells. To be noted: Mus musculus, 2 h at 37 C, 5 mM glucose, read-out: EC50 (agonist concentration that gives 50% increase in GLP-1). The format is cell-based, murine. As for the experimental part: Effects of GPR119 agonists on glucagon-like peptide 1 (GLP-1) secretion are determined in vitro in GLUTag cells. GLUTag cells are an immortalized murine intestinal enteroendocrine cell line that express the preproglucagon gene and secrete GLP-1 in a regulated manner (Brubaker P L, Schloos J, Drucker D J. Regulation of glucagon-like peptide-1 synthesis and secretion in the GLUTag enteroendocrine cell line. Endocrinology. 1998 139:4108-14). To measure GLP-1 secretion, 15,000 cells/well are seeded in 96-well-plate and incubated for 3 days in DMEM supplemented with 10% FBS and 1% Glutamine. On the day of the experiment, cells are washed twice with the incubation buffer, EBSS supplemented with 5 mM glucose and 0.1% BSA. 150 μL of the incubation buffer containing test compounds is added to each well and cells are incubated at 37° C. for 2 h. After incubation, the supernatant is collected and filtered using 96-well-filter-plates. GLP-1 content in the filtrate is determined with the Mouse/Rat Total GLP-1 Assay (Meso Scale Discovery). The potency of the GPR119 agonists to stimulate GLP-1 secretion is determined as the agonist concentration that gives 50% increase in GLP-1 (EC50).

Series [3] in a line: Oral bioavailability in Sprague-Dawley rats. Format: in vivo. The conditions noted are these: male, rat, plasma, 1 mg/kg IV, 3 mg/kg oral gavage.
From the text: as §1, §2, §3

The mark [4] stands for this setting: oral dosing 30 min before 3 g/kg dextrose, normal C57BL/6 mice.

In the case of `CC(Oc1ccc(C2=CCN(S(C)(=O)=O)CC2)cc1)C1CCN(CC(C)(C)F)CC1` (single isomer, unassigned) [Example 8, 4-(4-{1-[1-(2-Fluoro-2-methyl-propyl)-piperidin-4-yl]-ethoxy}-phenyl)-1-methanesulfonyl-1,2,3,6-tetrahydro-pyridine], the EC50 on human GPR119 was 1.1 nM.

For `CS(=O)(=O)N1CC=C(c2ccc(OCC3CCN(CC4(F)CCCC4)CC3)cc2)CC1` [Example 1, 4-{4-[1-(1-Fluoro-cyclopentylmethyl)-piperidin-4-ylmethoxy]-phenyl}-1-methanesulfonyl-1,2,3,6-tetrahydro-pyridine], the EC50 on human GPR119 stood at 4.61 nM.

Regarding `CC(C)(CN1CCC(COc2ccc(C3=CCN(S(C)(=O)=O)CC3)nc2)CC1)C(F)(F)F` [Example 3, 1′-Methanesulfonyl-5-[1-(3,3,3-trifluoro-2,2-dimethyl-propyl)-piperidin-4-ylmethoxy]-1′,2′,3′,6′-tetrahydro-[2,4′]bipyridinyl], the “increase in GIP AUC over vehicle” value with total GIP (10 mg/kg oral dose) amounted to 762 pg·h/mL.

As for `CC(C)(F)CN1CCC(COc2ccc(C3=CCN(S(C)(=O)=O)CC3)nc2)CC1` [Example 6, 5-[1-(2-Fluoro-2-methyl-propyl)-piperidin-4-ylmethoxy]-1′-methanesulfonyl-1′,2′,3′,6′-tetrahydro-[2,4′]bipyridinyl], in series [1], the body weight entry is given as “mild decrease” and the food intake result is “mild decrease”. For the same compound, in series [1] (OGTT at end of study), the plasma glucose levels result is on record as “did not significantly modify”. This compound also had a bioavailability in series [2] of 90%. The ED50 with plasma glucose (Mus musculus, oral, doses 0.9, 2, 6 and 18 mg/kg, normal C57BL/6 mice, read-out: ED50 (dose which produces a 50% decrease in glucose area under the curve)) came out at 0.4 mg/kg. In the series on plasma glucose (setting [4]), the glucose tolerance entry is reported as “improved glucose tolerance” and the postprandial plasma glucose entry is “significantly decreased”. The fasting plasma glucose entry in the series on plasma glucose (oral dosing, normal C57BL/6 mice fasted overnight) is reported as “did not influence”. Besides, the “increase in GIP AUC over vehicle” value in the series on total GIP (1.6 mg/kg oral dose) turned out to be 422 pg·h/mL. Moreover, the EC50 in the series on GLUTag cells came out at 62.7 nM. In addition, the EC50 at human GPR119 was 0.95 nM.

In the case of `CC(C)(F)CN1CCC(COc2ccc(C3=CCN(S(C)(=O)=O)CC3)cc2F)CC1` [Example 7, 4-{3-Fluoro-4-[1-(2-fluoro-2-methyl-propyl)-piperidin-4-ylmethoxy]-phenyl}-1-methanesulfonyl-1,2,3,6-tetrahydro-pyridine], the EC50 on human GPR119 stood at 2.13 nM.

Consider `CC(F)(F)CN1CCC(COc2ccc(C3=CCN(S(C)(=O)=O)CC3)cc2)CC1` [Example 9, 4-{4-[1-(2,2-Difluoro-propyl)-piperidin-4-ylmethoxy]-phenyl}-1-methanesulfonyl-1,2,3,6-tetrahydro-pyridine], for which the EC50 in the series on GLUTag cells came to 36.8 nM.

`CS(=O)(=O)N1CC=C(c2ccc(OCC3CCN(CC4(C(F)(F)F)CC4)CC3)cc2)CC1` [Example 10, 1-Methanesulfonyl-4-{4-[1-(1-trifluoromethyl-cyclopropylmethyl)-piperidin-4-ylmethoxy]-phenyl}-1,2,3,6-tetrahydro-pyridine] showed a bioavailability in series [3] of 53%. Further, the “increase in GIP AUC over vehicle” value in the series on total GIP (10 mg/kg oral dose) was 762 pg·h/mL. On human GPR119, the EC50 came out at 0.95 nM.

Turning to `N[C@@H](CC(=O)N1CCn2c(nnc2C(F)(F)F)C1)Cc1cc(F)c(F)cc1F` [Sitagliptin, sitagliptin, reference compound], in series [1], the body weight entry was “did not alter” and the food intake entry is on record as “did not alter”.

The term bioavailability denotes dose-corrected exposure relative to a reference, in per cent. A higher bioavailability goes with good availability. As usually defined, the ED50 is the dose that gives a 50% effect, or the effect in half of the subjects.
